Laboratory results from ChEMBL document CHEMBL1148493, “A combination of docking/dynamics simulations and pharmacophoric modeling to discover new dual c-Src/Abl kinase inhibitors” (J Med Chem, 2006).

What was measured:
[1] = biological target: Tyrosine-protein kinase ABL1 (Homo sapiens) (UniProt P00519)
Description: Binding affinity to human recombinant Abl

[2] = biological target: Proto-oncogene tyrosine-protein kinase Src (Homo sapiens, UniProt P12931); test: Binding affinity to human recombinant Src
Sequence of Proto-oncogene tyrosine-protein kinase Src (P12931 2-536 limits assumed): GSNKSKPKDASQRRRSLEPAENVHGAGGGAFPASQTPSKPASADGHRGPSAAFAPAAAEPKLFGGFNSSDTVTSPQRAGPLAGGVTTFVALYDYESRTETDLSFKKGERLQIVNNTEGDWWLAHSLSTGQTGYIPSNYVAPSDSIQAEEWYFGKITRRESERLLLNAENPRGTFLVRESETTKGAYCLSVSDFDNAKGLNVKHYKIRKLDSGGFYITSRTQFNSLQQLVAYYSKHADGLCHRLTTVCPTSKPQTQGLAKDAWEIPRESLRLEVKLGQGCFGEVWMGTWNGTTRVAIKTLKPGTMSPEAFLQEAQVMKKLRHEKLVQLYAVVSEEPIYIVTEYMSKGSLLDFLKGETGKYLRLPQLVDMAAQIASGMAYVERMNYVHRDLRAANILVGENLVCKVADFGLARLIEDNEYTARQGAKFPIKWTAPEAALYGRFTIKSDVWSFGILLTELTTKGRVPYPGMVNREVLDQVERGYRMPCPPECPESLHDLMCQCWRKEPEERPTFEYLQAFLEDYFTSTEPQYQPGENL

Sequence of Tyrosine-protein kinase ABL1 (Homo sapiens) (P00519 whole entry): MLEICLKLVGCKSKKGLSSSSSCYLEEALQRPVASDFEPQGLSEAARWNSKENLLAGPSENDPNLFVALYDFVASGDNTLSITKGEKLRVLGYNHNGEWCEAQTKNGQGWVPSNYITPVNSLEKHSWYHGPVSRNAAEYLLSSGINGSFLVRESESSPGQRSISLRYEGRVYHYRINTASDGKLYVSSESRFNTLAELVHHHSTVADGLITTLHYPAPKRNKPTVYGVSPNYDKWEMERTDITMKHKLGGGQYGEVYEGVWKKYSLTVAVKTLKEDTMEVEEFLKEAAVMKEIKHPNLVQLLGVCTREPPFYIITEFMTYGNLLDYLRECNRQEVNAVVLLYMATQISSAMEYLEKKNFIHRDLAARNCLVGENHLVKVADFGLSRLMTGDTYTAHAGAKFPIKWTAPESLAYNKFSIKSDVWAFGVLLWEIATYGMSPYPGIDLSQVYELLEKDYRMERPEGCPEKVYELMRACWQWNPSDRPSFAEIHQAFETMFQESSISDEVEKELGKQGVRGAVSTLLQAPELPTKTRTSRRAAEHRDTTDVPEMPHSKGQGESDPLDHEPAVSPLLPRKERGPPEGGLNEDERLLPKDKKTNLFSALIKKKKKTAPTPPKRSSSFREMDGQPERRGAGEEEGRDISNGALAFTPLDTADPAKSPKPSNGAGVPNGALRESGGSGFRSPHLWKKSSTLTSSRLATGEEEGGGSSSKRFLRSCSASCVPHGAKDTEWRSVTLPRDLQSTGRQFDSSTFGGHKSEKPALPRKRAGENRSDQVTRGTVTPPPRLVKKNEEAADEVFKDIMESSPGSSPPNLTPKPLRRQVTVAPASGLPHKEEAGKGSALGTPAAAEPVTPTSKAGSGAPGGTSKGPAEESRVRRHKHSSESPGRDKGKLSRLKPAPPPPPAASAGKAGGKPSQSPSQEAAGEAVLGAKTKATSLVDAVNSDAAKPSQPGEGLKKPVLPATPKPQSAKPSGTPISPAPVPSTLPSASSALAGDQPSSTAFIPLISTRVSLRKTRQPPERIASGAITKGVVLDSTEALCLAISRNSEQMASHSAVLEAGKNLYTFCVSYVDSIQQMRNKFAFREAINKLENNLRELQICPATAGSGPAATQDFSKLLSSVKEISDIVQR

Structure (SMILES)	ID50 [1] [µM]	ID50 [2] [µM]	Ki [2] [µM]
CCN(CC)c1ccc(/C=C2/C(=O)NN(c3ccc(I)cc3)C2=O)c(O)c1	> 2000	–	–
O=C1NN(c2ccccc2)C(=O)/C1=C\c1ccccc1OCc1ccccc1	> 2000	–	–
O=C(Nc1nnc(CCc2ccccc2)s1)c1ccc(Cl)cc1Cl	> 2000	–	–
O=C1NN(c2ccc(I)cc2)C(=O)/C1=C\c1ccc(N2CCOCC2)cc1	–	> 2000	–
Cc1ccc(-c2cnc(NC(=O)c3ccc(Br)cc3)s2)cc1	> 2000	> 2000	–

Now from value to compound:

ID50 [1] [µM]	ID50 [2] [µM]	Ki [2] [µM]	Structure (SMILES)
–	> 2000	–	O=C(Nc1ccccc1)Nc1nnc(Cc2ccccc2)s1
> 2000	–	–	COc1ccc(C(=O)Nc2nnc(Cc3c[nH]c4ccccc34)s2)cc1
> 2000	–	2.9	O=C(Nc1nnc(CCc2ccccc2)s1)c1ccccc1
